# Measurements taken from patent US6737383B1, “Herbicidal oxadiazolidines” (priority 1999, dated 2004).
# Columns and labels:
# bedstraw = experiment: Test B pre/postemergence bedstraw; type: in vivo, Galium aparine; conditions: scale of 0 to 10 where 0 is no effect and 10 is complete control
# Procedure, shortened: (§1)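 Response is a visual 0-to-10 score relative to untreated plants, where 0 means no effect and 10 means complete control, taken twelve to sixteen days after application. Treatments went onto soil at planting and onto foliage of 1- to 4-leaf plants, using a surfactant-containing non-phytotoxic solvent.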
# morningglory = experiment: Test B pre/postemergence morningglory; type: in vivo, Ipomoea hederacea
# Procedure, shortened: as §1
# rice = experiment: Test B flood test rice; type: in vivo, Oryza sativa
# Procedure, shortened: (§2)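 Flood test on plants grown to the 2-leaf stage; treated plants kept in greenhouse twelve to sixteen days, then visually rated against controls on a 0 (no effect) to 10 (complete control) scale.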
# cocklebur = experiment: Test B pre/postemergence cocklebur; type: in vivo, Xanthium strumarium
# Procedure, shortened: as §1
# blackgrass = experiment: Test B pre/postemergence blackgrass; type: in vivo, Alopecurus myosuroides
# Procedure, shortened: as §1
# wheat = experiment: Test B pre/postemergence wheat; type: in vivo, Triticum aestivum
# Procedure, shortened: as §1
# bamyardgrass = experiment: Test B flood test barnyardgrass; type: in vivo, Echinochloa crus-galli
# Procedure, shortened: as §2
# giant foxtail = experiment: Test B pre/postemergence giant foxtail; type: in vivo, Setaria faberii
# Procedure, shortened: as §1
# pigweed = experiment: Test B pre/postemergence pigweed; type: in vivo, Amaranthus retroflexus
# Procedure, shortened: as §1
# smallflower flatsedge = experiment: Test B flood test smallflower flatsedge; type: in vivo, Cyperus difformis
# Procedure, shortened: as §2
# sugar beet = experiment: Test B pre/postemergence sugar beet; type: in vivo, Beta vulgaris
# Procedure, shortened: as §1
# duck salad = experiment: Test B flood test duck salad; type: in vivo, Heteranthera limosa
# Procedure, shortened: as §2
# corn = experiment: Test B pre/postemergence corn; type: in vivo, Zea mays
# Procedure, shortened: as §1
# soybean = experiment: Test B pre/postemergence soybean; type: in vivo, Glycine max
# Procedure, shortened: as §1
# crabgrass = experiment: Test B pre/postemergence crabgrass; type: in vivo, Digitaria sanguinalis
# Procedure, shortened: as §1
# velvetleaf = experiment: Test B pre/postemergence velvetleaf; type: in vivo, Abutilon theophrasti
# Procedure, shortened: as §1
# rape = experiment: Test B pre/postemergence rape; type: in vivo, Brassica napus
# Procedure, shortened: as §1
# wild oat = experiment: Test B pre/postemergence wild oat; type: in vivo, Avena fatua
# Procedure, shortened: as §1
# surinam grass = experiment: Test B pre/postemergence surinam grass; type: in vivo, Brachiaria decumbens
# Procedure, shortened: as §1
# purple nutsedge = experiment: Test B pre/postemergence purple nutsedge; type: in vivo, Cyperus rotundus
# Procedure, shortened: as §1
# [1] = Preemergence, Rate 250 g/ha, scale of 0 to 10 where 0 is no effect and 10 is complete control
# [2] = Preemergence, Rate 500 g/ha, scale of 0 to 10 where 0 is no effect and 10 is complete control
# [3] = Rate 62 g/ha, Postemergence, scale 0 to 10, 0 no effect, 10 complete control
# [4] = Rate 125 g/ha, Postemergence, scale of 0 to 10 where 0 is no effect and 10 is complete control
# [5] = Rate 250 g/ha, Postemergence, scale of 0 to 10 where 0 is no effect and 10 is complete control
# [6] = Rate 62 g/ha, headed Pre-emergence (flood test species), scale 0 to 10 (0 no effect, 10 complete control)
# [7] = Rate 125 g/ha, Pre-emergence, flood test species, scale 0 to 10 where 0 is no effect and 10 is complete control
# [8] = Rate 250 g/ha, Pre-emergence, flood-test species, scale 0 to 10, 0 is no effect, 10 is complete control
# [9] = Rate 500 g/ha, Pre-emergence, flood test species, scale 0 to 10 (0 no effect, 10 complete control)
# [10] = Rate 500 g/ha, Postemergence, scale 0 to 10, 0 no effect, 10 complete control
smiles,measurement,setting,value
CCc1cccc(CC)c1-n1c(=O)on(C(=O)N(c2ccccc2)C(C)C)c1=O [Compound 305],Bedstraw plant response rating,"bedstraw; Preemergence, Rate 250 g/ha",0
same,Bedstraw plant response rating,"bedstraw; Preemergence, Rate 500 g/ha",0
same,Bedstraw plant response rating,"bedstraw; Rate 125 g/ha, Postemergence",0
same,Morningglory plant response rating (0 to 10 scale),"morningglory; Preemergence, Rate 125 g/ha",0
same,Morningglory plant response rating,morningglory; [1],0
same,Morningglory plant response rating,morningglory; [2],0
same,Morningglory plant response rating,morningglory; [3],0
same,Morningglory plant response rating,morningglory; [4],0
same,"Plant response rating, Morningglory",morningglory; [5],0
same,Rice plant response rating,rice; [6],0
same,Rice plant response rating,rice; [7],0
same,Rice plant response rating,rice; [8],0
same,Rice plant response rating,rice; [9],0
same,Cocklebur plant response rating (0 to 10 scale),"cocklebur; Preemergence, Rate 125 g/ha",0
same,Cocklebur plant response rating,cocklebur; [1],0
same,Cocklebur plant response rating,cocklebur; [2],0
same,Cocklebur plant response rating,cocklebur; [3],0
same,Cocklebur plant response rating,cocklebur; [4],0
same,"Plant response rating, Cocklebur",cocklebur; [5],0
same,Cocklebur plant response rating,cocklebur; [10],0
same,Blackgrass plant response rating (0 to 10 scale),"blackgrass; Preemergence, Rate 125 g/ha",0
same,Blackgrass plant response rating,blackgrass; [1],0
same,Blackgrass plant response rating,blackgrass; [2],4
same,Blackgrass plant response rating,blackgrass; [3],0
same,Blackgrass plant response rating,blackgrass; [4],0
same,"Plant response rating, Blackgrass",blackgrass; [5],0
same,Blackgrass plant response rating,blackgrass; [10],0
same,Wheat plant response rating (0 to 10 scale),"wheat; Preemergence, Rate 125 g/ha",0
same,Wheat plant response rating,wheat; [1],0
same,Wheat plant response rating,wheat; [2],0
same,Wheat plant response rating,wheat; [3],0
same,Wheat plant response rating,wheat; [4],0
same,"Plant response rating, Wheat",wheat; [5],0
same,Barnyardgrass plant response rating,bamyardgrass; [6],0
same,Barnyardgrass plant response rating,bamyardgrass; [7],0
same,Barnyardgrass plant response rating,bamyardgrass; [8],0
same,Barnyardgrass plant response rating,bamyardgrass; [9],0
same,Giant foxtail plant response rating (0 to 10 scale),"giant foxtail; Preemergence, Rate 125 g/ha",8
same,Giant foxtail plant response rating,giant foxtail; [1],9
same,Giant foxtail plant response rating,giant foxtail; [2],10
same,Giant foxtail plant response rating,giant foxtail; [3],0
same,Giant foxtail plant response rating,giant foxtail; [4],0
same,"Plant response rating, Giant foxtail",giant foxtail; [5],0
same,Redroot pigweed plant response rating (0 to 10 scale),"pigweed; Preemergence, Rate 125 g/ha",0
same,Redroot pigweed plant response rating,pigweed; [1],3
same,Redroot pigweed plant response rating,pigweed; [2],7
same,Redroot pigweed plant response rating,pigweed; [3],3
same,Redroot pigweed plant response rating,pigweed; [4],3
same,"Plant response rating, Redroot pigweed",pigweed; [5],4
same,S. Flatsedge plant response rating,smallflower flatsedge; [6],0
same,S. Flatsedge plant response rating,smallflower flatsedge; [7],0
same,S. Flatsedge plant response rating,smallflower flatsedge; [8],0
same,S. Flatsedge plant response rating,smallflower flatsedge; [9],0
same,Sugarbeets plant response rating (0 to 10 scale),"sugar beet; Preemergence, Rate 125 g/ha",0
same,Sugarbeets plant response rating,sugar beet; [1],0
same,Sugarbeets plant response rating,sugar beet; [2],3
same,Sugarbeets plant response rating,sugar beet; [3],0
same,Sugarbeets plant response rating,sugar beet; [4],0
same,"Plant response rating, Sugarbeets",sugar beet; [5],0
same,Ducksalad plant response rating,duck salad; [6],0
same,Ducksalad plant response rating,duck salad; [7],0
same,Ducksalad plant response rating,duck salad; [8],0
same,Ducksalad plant response rating,duck salad; [9],0
same,Corn plant response rating (0 to 10 scale),"corn; Preemergence, Rate 125 g/ha",0
same,Corn plant response rating,corn; [1],0
same,Corn plant response rating,corn; [2],0
same,Corn plant response rating,corn; [3],0
same,Corn plant response rating,corn; [4],0
same,"Plant response rating, Corn",corn; [5],0
same,Corn plant response rating,corn; [10],0
same,Soybean plant response rating (0 to 10 scale),"soybean; Preemergence, Rate 125 g/ha",0
same,Soybean plant response rating,soybean; [1],0
same,Soybean plant response rating,soybean; [2],0
same,Soybean plant response rating,soybean; [3],4
same,Soybean plant response rating,soybean; [4],4
same,"Plant response rating, Soybean",soybean; [5],4
same,Crabgrass plant response rating (0 to 10 scale),"crabgrass; Preemergence, Rate 125 g/ha",4
same,Crabgrass plant response rating,crabgrass; [1],6
same,Crabgrass plant response rating,crabgrass; [2],7
same,Crabgrass plant response rating,crabgrass; [3],0
same,Crabgrass plant response rating,crabgrass; [4],0
same,"Plant response rating, Crabgrass",crabgrass; [5],0
same,Velvetleaf plant response rating (0 to 10 scale),"velvetleaf; Preemergence, Rate 125 g/ha",0
same,Velvetleaf plant response rating,velvetleaf; [1],0
same,Velvetleaf plant response rating,velvetleaf; [2],0
same,Velvetleaf plant response rating,velvetleaf; [3],0
same,Velvetleaf plant response rating,velvetleaf; [4],0
same,"Plant response rating, Velvetleaf",velvetleaf; [5],0
same,Rape plant response rating (0 to 10 scale),"rape; Preemergence, Rate 125 g/ha",0
same,Rape plant response rating,rape; [1],0
same,Rape plant response rating,rape; [2],0
same,Rape plant response rating,rape; [3],0
same,Rape plant response rating,rape; [4],0
same,"Plant response rating, Rape",rape; [5],0
same,Wild oats plant response rating (0 to 10 scale),"wild oat; Preemergence, Rate 125 g/ha",0
same,Wild oats plant response rating,wild oat; [1],0
same,Wild oats plant response rating,wild oat; [2],1
same,Wild oats plant response rating,wild oat; [3],0
same,Wild oats plant response rating,wild oat; [4],0
same,"Plant response rating, Wild oats",wild oat; [5],0
same,"B. signalgrass plant response rating (0 to 10 scale, 0 is no effect, 10 is complete control)","surinam grass; Preemergence, Rate 125 g/ha",0
same,B. signalgrass plant response rating,surinam grass; [1],0
same,B. signalgrass plant response rating,surinam grass; [2],5
same,B. signalgrass plant response rating,surinam grass; [3],0
same,B. signalgrass plant response rating,surinam grass; [4],0
same,"Plant response rating, B. signalgrass",surinam grass; [5],0
same,B. signalgrass plant response rating,surinam grass; [10],0
same,Nutsedge plant response rating (0 to 10 scale),"purple nutsedge; Preemergence, Rate 125 g/ha",0
same,Nutsedge plant response rating,purple nutsedge; [1],0
same,Nutsedge plant response rating,purple nutsedge; [3],0
same,Nutsedge plant response rating,purple nutsedge; [4],0
same,"Plant response rating, Nutsedge",purple nutsedge; [5],0
